Reference: ChEMBL document CHEMBL1201862, “PubChem BioAssay data set” (2004)
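Following 48 hours of exposure in 96-well plates, responses at five concentrations were used to interpolate endpoints linearly. Abbreviation: GI50, concentration required for 50% inhibition of growth.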 The source made the active and inactive calls. Cut-off read from the data, not from the text of the source: active = GI50 up to about 1.1 µM and inactive = higher.

Key:
Test in all cases: inhibition of tumour cell growth, NCI panel, 48 h
HOP-92 = tested on: HOP-92
HCC 2998 = tested on: HCC 2998
SF-268 = tested on: SF-268
HCT-15 = tested on: HCT-15
M14 = tested on: M14
UACC-257 = tested on: UACC-257
HCT-116 = tested on: HCT-116
NCI-H522 = tested on: NCI-H522
NCI-H23 = tested on: NCI-H23
MCF7 = tested on: MCF7
OVCAR-5 = tested on: OVCAR-5
U-251 = tested on: U-251
K562 = tested on: K562
CAKI-1 = tested on: CAKI-1
SK-MEL-28 = tested on: SK-MEL-28
SK-OV-3 = tested on: SK-OV-3
DU-145 = tested on: DU-145
SNB-19 = tested on: SNB-19
TK-10 = tested on: TK-10
Hs-578T = tested on: Hs-578T
A498 = tested on: A498
SK-MEL-2 = tested on: SK-MEL-2
NCI-H226 = tested on: NCI-H226
A549 = tested on: A549
SK-MEL-5 = tested on: SK-MEL-5
BT-549 = tested on: BT-549
SF-539 = tested on: SF-539
UO-31 = tested on: UO-31
HL-60 = tested on: HL-60
COLO 205 = tested on: COLO 205
SF-295 = tested on: SF-295
SR = tested on: SR
LOX IMVI = tested on: LOX IMVI
NCI/ADR-RES = tested on: NCI/ADR-RES
MOLT-4 = tested on: MOLT-4
SW-620 = tested on: SW-620
OVCAR-8 = tested on: OVCAR-8
HOP-62 = tested on: HOP-62
EKVX = tested on: EKVX
SN12C = tested on: SN12C
786-0 = tested on: 786-0
OVCAR-3 = tested on: OVCAR-3
KM12 = tested on: KM12
MDA-MB-435 = tested on: MDA-MB-435
RPMI-8226 = tested on: RPMI-8226
IGROV-1 = tested on: IGROV-1
HT-29 = tested on: HT-29
NCI-H460 = tested on: NCI-H460
UACC-62 = tested on: UACC-62
MDA-N = tested on: MDA-N
ACHN = tested on: ACHN
PC-3 = tested on: PC-3
RXF 393 = tested on: RXF 393
OVCAR-4 = tested on: OVCAR-4
CCRF-CEM = tested on: CCRF-CEM
MDA-MB-231 = tested on: MDA-MB-231
Malme-3M = tested on: Malme-3M
SNB-75 = tested on: SNB-75

Measured: GI50

N[C@@H]1CCN(c2c(F)cc3c(=O)c(C(=O)O)cn4c3c2Oc2c-4ccc3c2ccc2ccccc23)C1
1.96 µM: HCT-15
active: HCC 2998 0.494 µM | HCT-116 1.08 µM | MCF7 0.667 µM | U-251 0.571 µM | SNB-19 0.344 µM | SR 0.225 µM | SW-620 0.671 µM | EKVX 0.857 µM | 786-0 0.412 µM | RPMI-8226 0.396 µM | IGROV-1 0.413 µM | HT-29 0.241 µM | NCI-H460 0.396 µM | ACHN 0.305 µM
inactive: HOP-92 2.13 µM | SF-268 5.73 µM | M14 5.55 µM | UACC-257 5.42 µM | NCI-H522 3.18 µM | NCI-H23 3.1 µM | OVCAR-5 2.86 µM | K562 3.1 µM | CAKI-1 6.53 µM | SK-MEL-28 > 100 µM | SK-OV-3 7.46 µM | DU-145 3.81 µM | TK-10 2.38 µM | Hs-578T 10.8 µM | A498 11.9 µM | SK-MEL-2 7.8 µM | NCI-H226 19.9 µM | A549 2.39 µM | SK-MEL-5 1.44 µM | BT-549 > 100 µM | SF-539 3.01 µM | UO-31 3.24 µM | HL-60 5.16 µM | COLO 205 2.99 µM | SF-295 1.92 µM | LOX IMVI 1.68 µM | NCI/ADR-RES 23.2 µM | MOLT-4 4 µM | OVCAR-8 1.38 µM | HOP-62 1.38 µM | SN12C 3.37 µM | OVCAR-3 21.5 µM | KM12 4.38 µM | MDA-MB-435 3.03 µM | UACC-62 2.79 µM | MDA-N 1.55 µM | PC-3 2.82 µM | RXF 393 1.2 µM | OVCAR-4 1.17 µM

O=c1c(Cc2ccc(Cl)cc2)nnc2sc(-c3ccc([N+](=O)[O-])cc3)nn12
14.6 µM: HCT-15
inactive: HOP-92 48.1 µM | HCC 2998 17.9 µM | SF-268 32.1 µM | M14 16.9 µM | UACC-257 17.1 µM | HCT-116 20 µM | NCI-H23 20.7 µM | MCF7 19.6 µM | OVCAR-5 17.5 µM | U-251 29 µM | K562 15.6 µM | CAKI-1 31.1 µM | SK-OV-3 38.3 µM | DU-145 29.8 µM | SNB-19 > 100 µM | TK-10 25.8 µM | Hs-578T 42 µM | A498 20 µM | SK-MEL-2 15.6 µM | A549 24.3 µM | BT-549 19.8 µM | UO-31 21.3 µM | CCRF-CEM 23.2 µM | HL-60 24.4 µM | MDA-MB-231 21 µM | SF-295 45.2 µM | SR 22.1 µM | LOX IMVI 29.2 µM | NCI/ADR-RES 32.1 µM | MOLT-4 > 100 µM | SW-620 31.1 µM | OVCAR-8 35 µM | HOP-62 49.1 µM | EKVX 23.2 µM | SN12C 33.5 µM | 786-0 33.3 µM | KM12 26.4 µM | MDA-MB-435 14.5 µM | RPMI-8226 21.3 µM | IGROV-1 36.9 µM | HT-29 30.1 µM | NCI-H460 16.1 µM | UACC-62 14.2 µM | MDA-N 24.7 µM | ACHN 25.9 µM | PC-3 20.7 µM | RXF 393 24.3 µM | Malme-3M 23.4 µM | OVCAR-4 28.7 µM

O=Cc1c(C(=O)O)[nH]c(=O)[nH]c1=O
> 100 µM: HCT-15
inactive: SF-268 > 100 µM | M14 > 100 µM | UACC-257 > 100 µM | HCT-116 > 100 µM | NCI-H522 58.3 µM | NCI-H23 > 100 µM | OVCAR-5 39.8 µM | U-251 > 100 µM | K562 > 100 µM | CAKI-1 > 100 µM | SK-MEL-28 > 100 µM | SK-OV-3 > 100 µM | DU-145 > 100 µM | SNB-19 > 100 µM | TK-10 > 100 µM | Hs-578T > 100 µM | A498 > 100 µM | SK-MEL-2 > 100 µM | NCI-H226 > 100 µM | A549 > 100 µM | SK-MEL-5 98.6 µM | BT-549 > 100 µM | SF-539 > 100 µM | UO-31 > 100 µM | CCRF-CEM > 100 µM | HL-60 > 100 µM | MDA-MB-231 > 100 µM | COLO 205 > 100 µM | SF-295 > 100 µM | SR > 10 µM | LOX IMVI > 100 µM | NCI/ADR-RES > 100 µM | MOLT-4 > 100 µM | SW-620 > 100 µM | OVCAR-8 > 100 µM | EKVX > 100 µM | SN12C > 100 µM | 786-0 > 100 µM | OVCAR-3 > 100 µM | KM12 > 100 µM | MDA-MB-435 > 100 µM | RPMI-8226 > 100 µM | IGROV-1 > 100 µM | HT-29 > 100 µM | NCI-H460 > 100 µM | UACC-62 > 100 µM | MDA-N > 100 µM | SNB-75 > 100 µM | ACHN > 100 µM | PC-3 > 100 µM | RXF 393 > 100 µM | Malme-3M > 100 µM
